≈ marks a conversion by molar mass, not a printed value. Like-named read-outs stand apart in the source and are kept apart here.
Experiments:
Type in all cases: cell-based, human
U251 = test: MTT survival assay, glioma cell line (brain tumor U251); conditions: U251 (first table)
Experimental: (§1) The effect of the above identified compounds on anti-tumor activity in human carcinoma cells was determined by the MTT survival assay. The MTT assay is a commonly used method in evaluation of cell survival, based on the ability of viable cells to convert MTT (MTT, Sigma, Cat No. 044K5307), a soluble tetrazolium salt [3-(4,5-dimethylthuazole-2-yl)-2,5 diphenyl tetrazolium bromide], into an insoluble formazan precipitate, which is quantitated by spectrophotometry following solubilization in dimethyl sulfoxide (DMSO).
(§2) In brief, different carcinoma cells were treated with negative control, various test articles at different concentration, and positive control (DDP), in 96-well tissue culture dishes. Each test article at different concentration is repeated 3 times.
(§3) Different carcinoma cells were diluted with 10% FBS and RPM1640 or MEM media to a concentration of 3-5×10^4 per ml suspension. 100 microliter of cells were incubated in each well in 96-well tissue culture dishes at 37 C. The cells were incubated at 37 C on the first day. On the second day, media supernatant was removed and replaced with media and different concentration of test articles (100 microliter in each well). Three Negative control wells and three positive control (DDP) wells were also included. The 96-well plate were incubated at 37 C for another 68 hours. After 68 hours, supernatant of each well was removed. 100 microliter of 1 mg/ml MTT diluted in PBS was injected into each well. The cells were incubated at 37 C for another 4 hours. The cells were then solubilized in 150 microliter DMSO, mixed for 10 minutes and absorbance readings were taken using Microplate reader Bio-Rad Model 550 at 570 nm. IR (cell growth inhibition rate) % was calculated as (OD570 of negative control-OD570 with test article)/OD570 of negative control. IC50 (cell 50% inhibition concentration) at 95% confidence level was calculated with Bliss method.

Hela cells = test: MTT survival assay, cervical cancer line (Hela cells)
Experimental: as §1, §2, §3

SMMC-7721 = test: MTT survival assay, liver cancer cell line (SMMC-7721); conditions: SMMC-7721
Experimental: as §1, §2, §3

MCF-7 = test: MTT survival assay, breast cancer cell line (MCF-7); conditions: for IC50: Homo sapiens
Experimental: as §1, §2, §3

A459 = test: MTT survival assay, lung cancer cell line (A459); conditions: A459
Experimental: as §1, §2, §3

SKOV3 = test: MTT survival assay, ovarian cancer cell line (SKOV3); conditions: SKOV3 (first table)
Experimental: as §1, §2, §3

## COc1ccccc1NC(=O)CSc1nc(-c2ccccc2)nc2ccccc12 [Mol 44]
U251; Homo sapiens, U-251, Bliss method, unit not printed (concentrations in μg/ml), read-out: IC50 (95% confidence level)
  IC50: 129 µg/mL (≈ 322 µM)
U251; 1.56 μg/ml
  IR (%): 9.9%
  OD(A570 nm): 0.790 ± 0.086
U251; 3.125 μg/ml
  IR (%): 19.6%
  OD(A570 nm): 0.705 ± 0.061
U251; 6.25 μg/ml
  IR (%): 1.2%
  OD(A570 nm): 0.866 ± 0.090
U251; 12.5 μg/ml
  IR (%): 7.5%
  OD(A570 nm): 0.811 ± 0.050
U251; 25 μg/ml
  IR (%): 15.9%
  OD(A570 nm): 0.737 ± 0.067
U251; 50 μg/ml
  IR (%): 24.9%
  OD(A570 nm): 0.659 ± 0.047
Hela cells; 0.07 μg/ml
  IR (%): 19.3%
  OD(A570 nm): 0.599 ± 0.109
Hela cells; 0.21 μg/ml
  IR (%): 11.8%
  OD(A570 nm): 0.655 ± 0.007
Hela cells; 0.62 μg/ml
  OD(A570 nm): 0.765 ± 0.200
Hela cells; 1.85 μg/ml
  IR (%): 0.8%
  OD(A570 nm): 0.737 ± 0.113
Hela cells; 5.56 μg/ml
  IR (%): 9.7%
  OD(A570 nm): 0.671 ± 0.044
Hela cells; 16.67 μg/ml
  IR (%): 7.4%
  OD(A570 nm): 0.688 ± 0.045
SMMC-7721; 1.56 μg/ml
  IR (%): 37.6%
  OD(A570 nm): 0.275 ± 0.004
SMMC-7721; 3.125 μg/ml
  IR (%): 27.2%
  OD(A570 nm): 0.321 ± 0.088
SMMC-7721; 6.25 μg/ml
  IR (%): 38.3%
  OD(A570 nm): 0.272 ± 0.019
SMMC-7721; 12.5 μg/ml
  IR (%): 11.1%
  OD(A570 nm): 0.392 ± 0.039
SMMC-7721; 25 μg/ml
  IR (%): 15.4%
  OD(A570 nm): 0.373 ± 0.019
SMMC-7721; 50 μg/ml
  IR (%): 21.6%
  OD(A570 nm): 0.345 ± 0.025
MCF-7; 1.56 μg/ml
  IR (%): 13.3%
  OD(A570 nm): 0.787 ± 0.176
MCF-7; 3.125 μg/ml
  IR (%): 12.8%
  OD(A570 nm): 0.811 ± 0.109
MCF-7; 6.25 μg/ml
  IR (%): 10.2%
  OD(A570 nm): 0.791 ± 0.151
MCF-7; 12.5 μg/ml
  IR (%): 12.4%
  OD(A570 nm): 0.791 ± 0.151
MCF-7; 25 μg/ml
  IR (%): 34.9%
  OD(A570 nm): 0.587 ± 0.030
MCF-7; 50 μg/ml
  IR (%): 41.6%
  OD(A570 nm): 0.527 ± 0.035
MCF-7; MCF7, 95% confidence limits of IC50, read-out: IC50 (95% confidence level), interval
  IC50: 71.3 to 551 µg/mL (≈ 178 to 1370 µM)
MCF-7; MCF7, Bliss method, unit not printed (concentrations in μg/ml), read-out: IC50 (95% confidence level)
  IC50: 145 µg/mL (≈ 362 µM)
A459; 1.56 μg/ml
  IR (%): 0.6%
  OD(A570 nm): 0.634 ± 0.009
A459; 3.125 μg/ml
  IR (%): −23.3%
  OD(A570 nm): 0.786 ± 0.048
A459; 6.25 μg/ml
  IR (%): −6.8%
  OD(A570 nm): 0.680 ± 0.015
A459; 12.5 μg/ml
  IR (%): 8.1%
  OD(A570 nm): 0.586 ± 0.051
A459; 25 μg/ml
  IR (%): 21.0%
  OD(A570 nm): 0.504 ± 0.046
A459; 50 μg/ml
  IR (%): 42.3%
  OD(A570 nm): 0.368 ± 0.039
A459; Homo sapiens, Bliss method, unit not printed (concentrations in μg/ml), read-out: IC50 (95% confidence level)
  IC50: 150 µg/mL (≈ 374 µM)
SKOV3; Homo sapiens, SK-OV-3, Bliss method, unit not printed (concentrations in μg/ml), read-out: IC50 (95% confidence level)
  IC50: 60 µg/mL (≈ 149 µM)
SKOV3; 1.56 μg/ml
  IR (%): 27.9%
  OD(A570 nm): 0.505 ± 0.029
SKOV3; 3.125 μg/ml
  IR (%): 23.9%
  OD(A570 nm): 0.533 ± 0.017
SKOV3; 6.25 μg/ml
  IR (%): 23.0%
  OD(A570 nm): 0.539 ± 0.023
SKOV3; 12.5 μg/ml
  IR (%): 25.1%
  OD(A570 nm): 0.525 ± 0.035
SKOV3; 25 μg/ml
  IR (%): 39.1%
  OD(A570 nm): 0.426 ± 0.008
SKOV3; 50 μg/ml
  IR (%): 52.4%
  OD(A570 nm): 0.333 ± 0.008

From patent US20100189648A1, “INHIBITORS FOR DISRUPTING THE INTERACTION OF UBIQUITINATION RELATED ENZYMES AND USES THEREOF” (priority 2006, published 2010)
